Measured values as given in ChEMBL document CHEMBL5385844, “Discovery of novel imidazole chemotypes as isoform-selective JNK3 inhibitors for the treatment of Alzheimer's disease” (Eur J Med Chem, 2023).
Activity calls are given as the source filed them. No cut-off for these calls is given here.

Columns and labels:
[1] = target: T1, Mitogen-activated protein kinase 8 (Homo sapiens, UniProt P45983); experiment: Inhibition of human JNK1 incubated for 40 mins in presence of ATP and [gamma33P-ATP] by scintillation counting method
[2] = target: Mitogen-activated protein kinase 10 (Homo sapiens, UniProt P53779); experiment: Inhibition of human JNK3 incubated for 40 mins in presence of ATP and [gamma33P-ATP] by scintillation counting method; details: read-out: IC50
[3] = target: T2, Mitogen-activated protein kinase 9 (Homo sapiens, UniProt P45984); experiment: Inhibition of human JNK2 incubated for 40 mins in presence of ATP and [gamma33P-ATP] by scintillation counting method
Cortical neurone [4] = experiment: Neuroprotective activity against Amyloid beta (1 to 42)-induced toxicity in rat cortical neuron assessed as cell viability measured after 24 to 48 hrs by MTT assay; assay type: functional, cell-based; details: time 24-48 hrs
Mus musculus [5] = experiment: Anti-alzheimer activity against APP/PS1 dE9 double transgenic mouse model assessed as time spent in platform quadrant at 10 mg/kg, po administered 3 times/week for 1 month and measured after 40 to 45 days of treatment by Morris water maze test (reference value: 15.94 +/- 2.08 sec); assay type: functional; details: time 1 months, 730 h
[6] = Half life in Sprague-Dawley rat at 1 mg/kg, iv measured upto 24 hrs by UPLC analysis; assay type: ADME, organism-based; details: in vivo
[7] = Brain to Plasma ratio in Sprague-Dawley rat at 30 mg/kg, po measured at Tmax; assay type: ADME, organism-based; details: read-out: BPR
[8] = Tmax in Sprague-Dawley rat at 3 mg/kg, po measured upto 24 hrs by UPLC analysis; assay type: ADME, organism-based; details: in vivo
Mus musculus [9] = experiment: Anti-alzheimer activity against APP/PS1 dE9 double transgenic mouse model assessed as escape latency time at 30 mg/kg, po administered 3 times/week for 1 month and measured after 27 days of treatment by Passive avoidance test (reference value: 24.8 +/- 4.1 sec); assay type: functional; details: time 1 months, 730 h
Cortical neurone [10] = experiment: Neuroprotective activity against Amyloid beta (1 to 42)-induced toxicity in rat cortical neuron assessed as cell viability at 20 uM measured after 24 hrs by MTT assay; assay type: functional; details: read-out: Activity
[11] = Plasma concentration in Sprague-Dawley rat at 30 mg/kg, po measured at Tmax; assay type: ADME, organism-based
[12] = Toxicity in APP/PS1 mouse assessed as abnormal symptoms at 60 mg/kg, po treated for 2 months; assay type: organism-based; details: in vivo, 1460 h
[13] = Toxicity in homozygous 3 x Tg mouse model assessed as visual inspection at 60 mg/kg, po daily for 2.2 months; assay type: organism-based; details: in vivo, 1606 h
Mus musculus [14] = experiment: Anti-alzheimer activity against homozygous 3 x Tg mouse model assessed as spontaneous alteration at 60 mg/kg, po administered daily for 2.2 months and measured after 57 days of treatment by Y-maze test (reference value: 45.05 +/- 3.61%); assay type: functional; details: 1606 h
[15] = Efflux ratio of apparent permeability basolateral to apical side over apical to basolateral side in human Caco-2 cells at 10 uM incubated for 1 hr by LC-MS/MS analysis; assay type: ADME, cell-based
Mus musculus [16] = experiment: Anti-alzheimer activity against APP/PS1 dE9 double transgenic mouse model assessed as time spent in platform quadrant at 30 mg/kg, po administered 3 times/week for 1 month and measured after 40 to 45 days of treatment by Morris water maze test (reference value: 15.94 +/- 2.08 sec); assay type: functional; details: time 1 months, 730 h
[17] = Cmax in Sprague-Dawley rat at 3 mg/kg, po measured upto 24 hrs by UPLC analysis; assay type: ADME, organism-based; parameters: dose 3 mg/kg, time < 24 hrs, route po; details: in vivo
[18] = Drug uptake in Sprague-Dawley rat brain at 30 mg/kg, po measured at Tmax; assay type: ADME, organism-based; details: in vivo
Mus musculus [19] = experiment: Anti-alzheimer activity against APP/PS1 dE9 double transgenic mouse model assessed as escape latency time at 10 mg/kg, po administered 3 times/week for 1 month and measured after 27 days of treatment by Passive avoidance test (reference value: 24.8 +/- 4.1 sec); assay type: functional; details: time 1 months, 730 h
Cortical neurone [20] = experiment: Neuroprotective activity against Amyloid beta (1 to 42)-induced toxicity in rat cortical neuron assessed as cell viability at 20 uM measured after 48 hrs by MTT assay; assay type: functional; details: read-out: Activity
[21] = Half life in Sprague-Dawley rat at 3 mg/kg, po measured upto 24 hrs by UPLC analysis; assay type: ADME, organism-based; details: in vivo
[22] = Oral bioavailability in Sprague-Dawley rat at 3 mg/kg measured upto 24 hrs by UPLC analysis; assay type: ADME, organism-based; details: in vivo
Mus musculus [23] = experiment: Anti-alzheimer activity against APP/PS1 dE9 double transgenic mouse model assessed as spontaneous alteration at 10 mg/kg, po administered 3 times/week for 1 month and measured after 27 days of treatment by Y-maze test (reference value: 45.51 +/- 2.92%); assay type: functional; details: time 1 months, 730 h
[24] = Apparent permeability across basolateral to apical side in human Caco-2 cells at 10 uM incubated for 1 hr by LC-MS/MS analysis; assay type: ADME, cell-based
Mus musculus [25] = experiment: Anti-alzheimer activity against homozygous 3 x Tg mouse model assessed as escape latency time at 30 mg/kg, po administered daily for 2.2 months and measured after 60 days of treatment by Passive avoidance test (reference value: 40.6 +/- 6 sec); assay type: functional; details: 1606 h
[26] = Permeability of the compound by PAMPA-BBB assay; assay type: ADME; details: read-out: permeability
Mus musculus [27] = experiment: Anti-alzheimer activity against homozygous 3 x Tg mouse model assessed as time spent in platform quadrant at 60 mg/kg, po administered daily for 2.2 months and measured after 68 to 73 days of treatment by Morris water maze test (reference value: 14.26 +/- 1.62 sec); assay type: functional; details: 1606 h
[28] = Toxicity in APP/PS1 mouse assessed as abnormal symptoms at 30 mg/kg, po treated for 2 months; assay type: organism-based; details: in vivo, 1460 h
[29] = Toxicity in APP/PS1 mouse assessed as weight change at 30 mg/kg, po treated for 2 months; assay type: organism-based; details: in vivo, 1460 h
[30] = AUC in Sprague-Dawley rat at 1 mg/kg, iv measured upto 24 hrs by UPLC analysis; assay type: ADME, organism-based; parameters: dose 1 mg/kg, time < 24 hrs, route iv; details: in vivo
[31] = Apparent permeability across apical to basolateral side in human Caco-2 cells at 10 uM incubated for 1 hr by LC-MS/MS analysis; assay type: ADME, cell-based
Mus musculus [32] = experiment: Anti-alzheimer activity against APP/PS1 dE9 double transgenic mouse model assessed as spontaneous alteration at 30 mg/kg, po administered 3 times/week for 1 month and measured after 27 days of treatment by Y-maze test (reference value: 45.51 +/- 2.92%); assay type: functional; details: time 1 months, 730 h
[33] = Toxicity in APP/PS1 mouse assessed as weight change at 60 mg/kg, po treated for 2 months; assay type: organism-based; details: in vivo, 1460 h
[34] = target: T1, Mitogen-activated protein kinase 8; experiment: Inhibition of JNK1 (unknown origin) assessed as incorporation of 33P-ATP
[35] = target: T2, Mitogen-activated protein kinase 9; experiment: Inhibition of JNK2 (unknown origin) assessed as incorporation of 33P-ATP
[36] = Oral bioavailability in Sprague-Dawley rat at 15 mg/kg measured upto 24 hrs by UPLC analysis; assay type: ADME, organism-based; details: in vivo
[37] = Half life in Sprague-Dawley rat at 15 mg/kg, po measured upto 24 hrs by UPLC analysis; assay type: ADME, organism-based; details: in vivo
[38] = AUC in Sprague-Dawley rat at 15 mg/kg, po measured upto 24 hrs by UPLC analysis; assay type: ADME, organism-based; parameters: dose 15 mg/kg, time < 24 hrs, route po; details: in vivo
[39] = Tmax in Sprague-Dawley rat at 15 mg/kg, po measured upto 24 hrs by UPLC analysis; assay type: ADME, organism-based; details: in vivo
[40] = Cmax in Sprague-Dawley rat at 15 mg/kg, po measured upto 24 hrs by UPLC analysis; assay type: ADME, organism-based; parameters: dose 15 mg/kg, time < 24 hrs, route po; details: in vivo

Mitogen-activated protein kinase 10, sequence (P53779 whole entry): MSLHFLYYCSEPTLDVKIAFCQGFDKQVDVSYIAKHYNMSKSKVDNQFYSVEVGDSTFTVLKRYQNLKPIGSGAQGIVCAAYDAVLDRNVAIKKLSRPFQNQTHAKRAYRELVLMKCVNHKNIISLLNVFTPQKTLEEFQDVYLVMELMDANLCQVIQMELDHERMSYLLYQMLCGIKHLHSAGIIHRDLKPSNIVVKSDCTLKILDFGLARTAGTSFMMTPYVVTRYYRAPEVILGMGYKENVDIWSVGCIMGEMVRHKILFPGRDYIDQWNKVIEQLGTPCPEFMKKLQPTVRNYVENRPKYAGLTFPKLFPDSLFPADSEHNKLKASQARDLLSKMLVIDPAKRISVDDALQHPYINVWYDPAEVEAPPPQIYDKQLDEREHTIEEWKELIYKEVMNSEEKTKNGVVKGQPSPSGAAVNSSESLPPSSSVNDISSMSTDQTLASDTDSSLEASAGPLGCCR
T2 sequence (P45984 whole entry): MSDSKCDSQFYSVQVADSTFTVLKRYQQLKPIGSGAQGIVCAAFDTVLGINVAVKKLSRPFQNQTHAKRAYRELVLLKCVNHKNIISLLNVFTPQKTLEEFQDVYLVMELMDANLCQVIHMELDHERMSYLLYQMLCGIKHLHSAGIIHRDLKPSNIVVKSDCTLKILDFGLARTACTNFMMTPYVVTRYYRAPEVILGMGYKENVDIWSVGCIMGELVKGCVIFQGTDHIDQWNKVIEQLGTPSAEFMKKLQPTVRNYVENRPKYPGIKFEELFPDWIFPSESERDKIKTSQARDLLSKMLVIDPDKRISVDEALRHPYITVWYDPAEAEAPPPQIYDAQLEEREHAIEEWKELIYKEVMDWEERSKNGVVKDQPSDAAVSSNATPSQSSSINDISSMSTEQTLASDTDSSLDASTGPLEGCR
T1 sequence (P45983 whole entry): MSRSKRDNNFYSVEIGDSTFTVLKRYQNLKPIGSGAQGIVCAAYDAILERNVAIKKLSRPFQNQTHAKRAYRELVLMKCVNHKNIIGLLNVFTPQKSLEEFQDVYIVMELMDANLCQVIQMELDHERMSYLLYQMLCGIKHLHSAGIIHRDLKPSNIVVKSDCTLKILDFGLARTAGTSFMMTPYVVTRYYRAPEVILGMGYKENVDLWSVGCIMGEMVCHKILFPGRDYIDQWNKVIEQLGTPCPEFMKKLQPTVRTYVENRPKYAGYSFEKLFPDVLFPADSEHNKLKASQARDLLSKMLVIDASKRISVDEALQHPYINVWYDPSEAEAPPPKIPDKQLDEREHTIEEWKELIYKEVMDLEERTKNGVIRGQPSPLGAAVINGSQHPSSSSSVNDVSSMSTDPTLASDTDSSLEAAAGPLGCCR

Compound: N#CCc1cnc(-c2ccc(Cl)c(Cl)c2)n1-c1ccnc(NC(=O)NC2CCCN(C(=O)C3CC3)C2)n1 (stereo not drawn)
- IC50 [1]: > 10000 nM
- IC50 [2]: > 10000 nM
- IC50 [3]: > 10000 nM

Compound: N#CCc1cnc(C2=CC3OCCOC3C=C2)n1-c1ccnc(N[C@H]2CCCN(C(=O)C3CC3)C2)n1 (stereo partly drawn)
- IC50 [2]: 1520 nM

Compound: N#CCc1cnc(-c2ccc(F)c(C(F)(F)F)c2)n1-c1ccnc(N[C@H]2CCCN(C(=O)C3CC3)C2)n1
- IC50 [2]: 3280 nM

Compound: Cc1ccc(-c2ncn(-c3ccc(Nc4nccc(-c5cccc(N6CCOCC6)c5)n4)cc3)n2)cn1
- Activity (Cortical neurone [4]): inactive

Compound: N#CCc1cnc(-c2ccc3ccccc3c2)n1-c1ccnc(N[C@H]2CCCCN(C(=O)C3CC3)C2)n1
- IC50 [1]: 962 nM
- IC50 [2]: 24.1 nM
- IC50 [3]: 241 nM

Compound: N#CCc1cnc(-c2ccc3ccccc3c2)n1-c1ccnc(N[C@H]2CCCNC2)n1
- IC50 [2]: > 10000 nM

Compound: C[C@@H](O)CNc1nccc(-n2c(CC#N)cnc2-c2ccc3c(c2)OCCO3)n1
- IC50 [2]: 9840 nM

Compound: N#CCc1cnc(-c2ccc(Cl)c(Cl)c2)n1-c1ccnc(N[C@H]2CCCNC2)n1
- IC50 [2]: 13300 nM

Compound: N#CCc1cnc(-c2ccc(F)c(C(F)(F)F)c2)n1-c1ccnc(NC2CCCCC2)n1
- IC50 [2]: 10000 nM

Compound: Oc1ccc(/C=C/c2cc(O)cc(O)c2)cc1
- Activity (Cortical neurone [4]): Active

Compound: N#CCc1cnc(-c2ccc3ccccc3n2)n1-c1ccnc(NC2CCOCC2)n1
- IC50 [2]: 13500 nM

Compound: N#CCc1cnc(C2=CC3OCCOC3C=C2)n1-c1ccnc(N[C@H]2CCCNC2)n1 (stereo partly drawn)
- IC50 [2]: > 10000 nM

Compound: N#CCc1cnc(-c2ccc3c(c2)CCO3)n1-c1ccnc(N[C@H]2CCCN(C(=O)C3CC3)C2)n1
- Time (Mus musculus [5]): 21.55 s
- half-life [6]: 21.6 min
- Kp [7]: 0.06
- Tmax [8]: 40.2 min
- Time (Mus musculus [9]): 40.1 s
- viability at 20 µM (Cortical neurone [10]): 73.3%
- Cmax [11]: 5910 ng/mL
- Activity [12]: Non-Toxic
- Activity [13]: Non-Toxic
- Activity (Mus musculus [14]): 57.14%
- efflux ratio at 1 h, 10 µM [15]: 2.86
- Time (Mus musculus [16]): 22.5 s
- IC50 [1]: 148 nM
- Cmax [17]: 1240 ng/mL
- Drug uptake [18]: 357 ng/g
- Time (Mus musculus [19]): 34.7 s
- viability at 20 µM (Cortical neurone [20]): 46.3%
- half-life [21]: 68.4 min
- IC50 [2]: 4.1 nM
- bioavailability [22]: 86.2%
- Activity (Mus musculus [23]): 53.15%
- Papp B→A at 1 h, 10 µM [24]: 31.3 ×10⁻⁶ cm/s
- Time (Mus musculus [25]): 71.1 s
- Papp [26]: 8.91 ×10⁻⁶ cm/s
- Time (Mus musculus [27]): 21.91 s
- Activity [28]: Non-Toxic
- Activity [29]: Non-Toxic
- IC50 [3]: 44 nM
- AUC at 24 h [30]: 1090 ng·h/mL
- Papp A→B at 1 h, 10 µM [31]: 11 ×10⁻⁶ cm/s
- Activity (Mus musculus [32]): 54.99%
- Activity [33]: Non-Toxic

Compound: CC(C)(C)C(=O)N1CCC[C@H](Nc2nccc(-n3c(CC#N)cnc3-c3ccc(Cl)c(Cl)c3)n2)C1
- IC50 [1]: 444 nM
- IC50 [2]: 8 nM
- IC50 [3]: 81 nM

Compound: O=C(C1CC1)N1CCC[C@H](Nc2nccc(-n3c(-c4ccc5c(c4)OCCO5)nc4cc(O)c(O)cc43)n2)C1
- IC50 [34]: > 10000 nM
- IC50 [2]: 10 nM
- IC50 [35]: ~1000 nM

Compound: N#CCc1cnc(-c2ccc(Cl)c(Cl)c2)n1-c1ccnc(N[C@H]2CCCN(C(=O)C3CC3)C2)n1
- half-life [6]: 12.6 min
- bioavailability [36]: 6.2%
- viability at 20 µM (Cortical neurone [10]): 72.4%
- half-life [37]: 105 min
- IC50 [1]: 312 nM
- viability at 20 µM (Cortical neurone [20]): 47%
- AUC at 24 h [38]: 839 ng·h/mL
- Tmax [39]: 40.2 min
- IC50 [2]: 2 nM
- Cmax [40]: 406 ng/mL
- IC50 [3]: 44.2 nM
- AUC at 24 h [30]: 902 ng·h/mL

Compound: N#CCc1cnc(-c2ccc3c(c2)OCO3)n1-c1ccnc(NC2CCCCC2)n1
- IC50 [2]: 814 nM

Compound: C[C@@H](O)CNc1nccc(-n2c(CC#N)cnc2-c2ccc(F)c(C(F)(F)F)c2)n1
- IC50 [2]: > 10000 nM

Compound: N#CCc1cnc(-c2ccc3ccccc3n2)n1-c1ccnc(NC2CCCCC2)n1
- IC50 [2]: > 10000 nM

Compound: N#CCc1cnc(-c2ccc3ccccc3n2)n1-c1ccnc(N[C@H]2CCCNC2)n1
- IC50 [2]: > 10000 nM

Compound: N#CCc1cnc(-c2ccc3ccccc3c2)n1-c1ccnc(N[C@@H]2CCCN(C(=O)C3CC3)C2)n1
- IC50 [1]: 211 nM
- IC50 [2]: 5 nM
- IC50 [3]: 66.1 nM
